{
  "source": "paper PMC12396409",
  "about": "“Screening and hit evaluation of a microbial metabolite library against the pathogenic Plasmodium falciparum and Toxoplasma gondii parasites” (International Journal for Parasitology: Drugs and Drug …, 2025)",
  "key": {"[1]": {"test_system": "T. gondii RH strain (RH-Tub-eYFP) tachyzoites", "assay": "microbe, parasite or virus in culture", "assay_type": "cell-based, Toxoplasma gondii", "settings": "for percent parasite growth at 2 µg/mL: Toxoplasma gondii"}, "[2]": {"test_system": "P. falciparum 3D7 parasites", "assay": "P. falciparum growth inhibition assay, 2-cycle (120 h treatment), delayed-death screen and dose-response", "assay_type": "cell-based, Plasmodium falciparum", "settings": "for 3) Fold change (72 h/120 h): growth at 72 h / growth at 120 h"}, "[3]": {"test_system": "P. falciparum 3D7 parasites", "assay": "P. falciparum growth inhibition assay, 1-cycle (72 h treatment), SYBR DNA staining (library screen at 2 μg/mL and dose-response)", "assay_type": "cell-based, Plasmodium falciparum"}, "[4]": {"settings": "T. gondii, 72 h, screen at 2 μg/mL, replicate 1"}, "[5]": {"settings": "T. gondii, 72 h, screen at 2 μg/mL, replicate 2"}, "[6]": {"settings": "P. falciparum, 120 h, screen at 2 μg/mL, replicate 1"}, "[7]": {"settings": "P. falciparum, 120 h, screen at 2 μg/mL, replicate 2"}, "[8]": {"settings": "P. falciparum, 72 h, screen at 2 μg/mL, replicate 1"}, "[9]": {"settings": "P. falciparum, 72 h, screen at 2 μg/mL, replicate 2"}, "[10]": {"settings": "72 h, T. gondii, 72 h, screen at 2 μg/mL, replicate 1, read-out: Tg_72h_%Growth_Rep1"}, "[11]": {"settings": "72 h, T. gondii, 72 h, screen at 2 μg/mL, replicate 2, read-out: Tg_72h_%Growth_Rep2"}},
  "note": "Where two headings read alike, the source gives them in different places.",
  "data": [
    {"compound": "CC(=O)O[C@H]1CC[C@]2(C)[C@H]3CC[C@]4(C)Oc5cc(C)oc(=O)c5C[C@H]4[C@]3(C)CC[C@H]2C1(C)C", "note": "[Chevalone B]", "values": [
      {"measurement": "Tg_72h_%Growth_Rep1", "setting": "[1]; [4]", "value": 78.55, "unit": "%"},
      {"measurement": "Tg_72h_%Growth_Rep2", "setting": "[1]; [5]", "value": 94.84, "unit": "%"},
      {"measurement": "2) Growth (%) at 120 h", "setting": "[2]; P. falciparum, 2 μg/mL, 120 h", "value": 17.52, "unit": "%"},
      {"measurement": "Pf_120h_%Growth_Rep1", "setting": "[2]; [6]", "value": 13.73, "unit": "%"},
      {"measurement": "Pf_120h_%Growth_Rep2", "setting": "[2]; [7]", "value": 21.31, "unit": "%"},
      {"measurement": "3) Fold change (72 h/120 h)", "setting": "[2]; P. falciparum, 2 μg/mL", "value": 1.5},
      {"measurement": "1) Growth (%) at 72 h", "setting": "[3]; P. falciparum, 2 μg/mL, 72 h", "value": 25.41, "unit": "%"},
      {"measurement": "Mean", "setting": "[3]; P. falciparum, 72 h, 2 μg/mL, mean of both replicates, growth (% of control)", "value": 25.41},
      {"measurement": "Pf_72h_%Growth_Rep1", "setting": "[3]; [8]", "value": 12.18, "unit": "%"},
      {"measurement": "Pf_72h_%Growth_Rep2", "setting": "[3]; [9]", "value": 38.64, "unit": "%"}
    ]},
    {"compound": "C[C@@H]1CC[C@H]2C(C)(C)[C@H](O)CC[C@]2(C)[C@@]12Cc1c(O)cc3c(c1O2)CNC3=O", "note": "[Stachybotrylactam]", "values": [
      {"measurement": "Tg_72h_%Growth_Rep1", "setting": "[1]; T. gondii, 72 h, parasite screen 2 μg/mL, % growth, replicate 1", "value": 105.88, "unit": "%"},
      {"measurement": "Tg_72h_%Growth_Rep2", "setting": "[1]; T. gondii, 72 h, parasite screen 2 μg/mL, % growth, replicate 2", "value": 102.71, "unit": "%"},
      {"measurement": "Pf_120h_%Growth_Rep1", "setting": "[2]; P. falciparum, 120 h, parasite screen 2 μg/mL, % growth, replicate 1", "value": 94.74, "unit": "%"},
      {"measurement": "Pf_120h_%Growth_Rep2", "setting": "[2]; P. falciparum, 120 h, parasite screen 2 μg/mL, % growth, replicate 2", "value": 25.01, "unit": "%"},
      {"measurement": "Pf_72h_%Growth_Rep1", "setting": "[3]; P. falciparum, 72 h, parasite screen 2 μg/mL, % growth, replicate 1", "value": 26.98, "unit": "%"},
      {"measurement": "Pf_72h_%Growth_Rep2", "setting": "[3]; P. falciparum, 72 h, parasite screen 2 μg/mL, % growth, replicate 2", "value": 44.84, "unit": "%"}
    ]},
    {"compound": "CC[C@H]1OC(=O)C[C@@H](O)[C@H](C)[C@@H](O[C@@H]2O[C@H](C)[C@@H](O)[C@H](N(C)C)[C@H]2O)[C@@H](CCN2C[C@H](C)C[C@H](C)C2)C[C@@H](C)C(=O)/C=C/C(C)=C/[C@@H]1CO[C@@H]1O[C@H](C)[C@@H](O)[C@@H](OC)[C@H]1OC", "note": "[Tilmicosin, reference compound]", "values": [
      {"measurement": "percent parasite growth at 2 µg/mL", "setting": "[1]; [10]", "value": 48.2, "unit": "%"},
      {"measurement": "percent parasite growth at 2 µg/mL", "setting": "[1]; [11]", "value": 37.2, "unit": "%"},
      {"measurement": "3) Fold change (72 h/120 h)", "setting": "[2]; P. falciparum, 2 μg/mL", "value": 3.0},
      {"measurement": "activity at 2 µg/mL", "setting": "[2]; Plasmodium falciparum, 3D7; P. falciparum, 2 μg/mL, 120 h; read-out: 2) Growth (%) at 120 h", "value": 14.5, "unit": "%"},
      {"measurement": "activity at 2 µg/mL", "setting": "[2]; Plasmodium falciparum, 3D7, P. falciparum, 120 h, screen at 2 μg/mL, replicate 1, read-out: Pf_120h_%Growth_Rep1", "value": 22.4, "unit": "%"},
      {"measurement": "activity at 2 µg/mL", "setting": "[2]; Plasmodium falciparum, 3D7, P. falciparum, 120 h, screen at 2 μg/mL, replicate 2, read-out: Pf_120h_%Growth_Rep2", "value": 6.63, "unit": "%"},
      {"measurement": "activity at 2 µg/mL", "setting": "[3]; Plasmodium falciparum, 3D7; P. falciparum, 2 μg/mL, 72 h; read-out: 1) Growth (%) at 72 h", "value": 43.1, "unit": "%"},
      {"measurement": "activity at 2 µg/mL", "setting": "[3]; Plasmodium falciparum, 3D7, P. falciparum, 72 h, screen at 2 μg/mL, replicate 1, read-out: Pf_72h_%Growth_Rep1", "value": 45, "unit": "%"},
      {"measurement": "activity at 2 µg/mL", "setting": "[3]; Plasmodium falciparum, 3D7, P. falciparum, 72 h, screen at 2 μg/mL, replicate 2, read-out: Pf_72h_%Growth_Rep2", "value": 41.2, "unit": "%"}
    ]},
    {"compound": "CN[C@@H]1C[C@H]2O[C@@](C)([C@@H]1OC)n1c3ccccc3c3c4c(c5c6ccccc6n2c5c31)C(=O)N[C@H]4O", "note": "[UCN-01]", "values": [
      {"measurement": "Tg_72h_%Growth_Rep1", "setting": "[1]; [4]", "value": 1.44, "unit": "%"},
      {"measurement": "Tg_72h_%Growth_Rep2", "setting": "[1]; [5]", "value": 1.53, "unit": "%"},
      {"measurement": "Pf_120h_%Growth_Rep1", "setting": "[2]; [6]", "value": 24.61, "unit": "%"},
      {"measurement": "Pf_120h_%Growth_Rep2", "setting": "[2]; [7]", "value": 12.22, "unit": "%"},
      {"measurement": "Pf_72h_%Growth_Rep1", "setting": "[3]; [8]", "value": 0.68, "unit": "%"},
      {"measurement": "Pf_72h_%Growth_Rep2", "setting": "[3]; [9]", "value": -0.50, "unit": "%"}
    ]},
    {"compound": "Aflatoxin B1", "values": [
      {"measurement": "Tg_72h_%Growth_Rep1", "setting": "[1]", "value": 27.47, "unit": "%"},
      {"measurement": "Tg_72h_%Growth_Rep2", "setting": "[1]", "value": 33.32, "unit": "%"},
      {"measurement": "Pf_120h_%Growth_Rep1", "setting": "[2]", "value": 89.63, "unit": "%"},
      {"measurement": "Pf_120h_%Growth_Rep2", "setting": "[2]", "value": 84.39, "unit": "%"},
      {"measurement": "Pf_72h_%Growth_Rep1", "setting": "[3]", "value": 79.06, "unit": "%"},
      {"measurement": "Pf_72h_%Growth_Rep2", "setting": "[3]", "value": 85.00, "unit": "%"}
    ]},
    {"compound": "C/C=C(\\NC(=O)c1csc(-c2csc(-c3ccc4c(n3)-c3csc(n3)[C@H]([C@@H](C)O)NC(=O)c3csc(n3)[C@H](C(C)(C)O)NC(=O)c3csc(n3)/C(=C/C)NC(=O)[C@H]([C@@H](C)O)NC(=O)c3csc-4n3)n2)n1)C(=O)NC[C@@H](C)O", "note": "[Thiocillin I]", "values": [
      {"measurement": "Tg_72h_%Growth_Rep1", "setting": "[1]; [4]", "value": 86.81, "unit": "%"},
      {"measurement": "Tg_72h_%Growth_Rep2", "setting": "[1]; [5]", "value": 86.09, "unit": "%"},
      {"measurement": "Pf_120h_%Growth_Rep1", "setting": "[2]; [6]", "value": 9.85, "unit": "%"},
      {"measurement": "Pf_120h_%Growth_Rep2", "setting": "[2]; [7]", "value": 7.39, "unit": "%"},
      {"measurement": "IC50", "setting": "[3]; 3D7, 72 h treatment, mean ± S.D., n ≥ 3, read-out: IC50 (μM), P. falciparum", "value": "0.08 ± 0.008", "unit": "µM"},
      {"measurement": "IC50", "setting": "[3]; 72 h treatment, read-out: IC50, P. falciparum", "value": "< 0.2", "unit": "µM"},
      {"measurement": "Pf_72h_%Growth_Rep1", "setting": "[3]; [8]", "value": 5.41, "unit": "%"},
      {"measurement": "Pf_72h_%Growth_Rep2", "setting": "[3]; [9]", "value": -2.25, "unit": "%"}
    ]},
    {"compound": "C=C1c2cccc(O)c2C(=O)C2=C(O)[C@]3(O)C(=O)C(C(N)=O)=C(O)[C@@H](N(C)C)[C@@H]3[C@@H](O)[C@H]12", "note": "[BIA-M1467]", "values": [
      {"measurement": "Tg_72h_%Growth_Rep1", "setting": "[1]; T. gondii, 72 h, parasite screen at 2 μg/mL, % growth, replicate 1", "value": 118.90, "unit": "%"},
      {"measurement": "Tg_72h_%Growth_Rep2", "setting": "[1]; T. gondii, 72 h, parasite screen at 2 μg/mL, % growth, replicate 2", "value": 95.35, "unit": "%"},
      {"measurement": "Pf_120h_%Growth_Rep1", "setting": "[2]; P. falciparum 3D7, 120 h, parasite screen at 2 μg/mL, % growth, replicate 1", "value": 96.98, "unit": "%"},
      {"measurement": "Pf_120h_%Growth_Rep2", "setting": "[2]; P. falciparum 3D7, 120 h, parasite screen at 2 μg/mL, % growth, replicate 2", "value": 103.99, "unit": "%"},
      {"measurement": "Pf_72h_%Growth_Rep1", "setting": "[3]; P. falciparum 3D7, 72 h, parasite screen at 2 μg/mL, % growth, replicate 1", "value": 83.43, "unit": "%"},
      {"measurement": "Pf_72h_%Growth_Rep2", "setting": "[3]; P. falciparum 3D7, 72 h, parasite screen at 2 μg/mL, % growth, replicate 2", "value": 110.33, "unit": "%"}
    ]},
    {"compound": "CC(=O)C1=C(O)[C@@H]2[C@H]3c4c[nH]c5cccc(c45)C[C@H]3C(C)(C)N2C1=O", "note": "[Cyclopiazonic acid]", "values": [
      {"measurement": "percent parasite growth at 2 µg/mL", "setting": "[1]; [10]", "value": 0.36, "unit": "%"},
      {"measurement": "percent parasite growth at 2 µg/mL", "setting": "[1]; [11]", "value": 3.22, "unit": "%"},
      {"measurement": "activity at 2 µg/mL", "setting": "[2]; Plasmodium falciparum, 3D7, 120 h, P. falciparum, 120 h, screen at 2 μg/mL, replicate 1, read-out: Pf_120h_%Growth_Rep1", "value": 14, "unit": "%"},
      {"measurement": "activity at 2 µg/mL", "setting": "[2]; Plasmodium falciparum, 3D7, 120 h, P. falciparum, 120 h, screen at 2 μg/mL, replicate 2, read-out: Pf_120h_%Growth_Rep2", "value": 9.35, "unit": "%"},
      {"measurement": "activity at 2 µg/mL", "setting": "[3]; Plasmodium falciparum, 3D7, 72 h, P. falciparum, 72 h, screen at 2 μg/mL, replicate 1, read-out: Pf_72h_%Growth_Rep1", "value": 12.6, "unit": "%"},
      {"measurement": "activity at 2 µg/mL", "setting": "[3]; Plasmodium falciparum, 3D7, 72 h, P. falciparum, 72 h, screen at 2 μg/mL, replicate 2, read-out: Pf_72h_%Growth_Rep2", "value": 7.26, "unit": "%"}
    ]}
  ]
}
